This test addresses T1, full-length MALT1 protein His-MALT1(1-824) (Homo sapiens, UniProt Q9UDY8).
T1 construct: full-length MALT1 protein His-MALT1(1-824); His (N); made in house; host or cells: baculovirus-infected insect cells
T1 sequence (Q9UDY8 1-824): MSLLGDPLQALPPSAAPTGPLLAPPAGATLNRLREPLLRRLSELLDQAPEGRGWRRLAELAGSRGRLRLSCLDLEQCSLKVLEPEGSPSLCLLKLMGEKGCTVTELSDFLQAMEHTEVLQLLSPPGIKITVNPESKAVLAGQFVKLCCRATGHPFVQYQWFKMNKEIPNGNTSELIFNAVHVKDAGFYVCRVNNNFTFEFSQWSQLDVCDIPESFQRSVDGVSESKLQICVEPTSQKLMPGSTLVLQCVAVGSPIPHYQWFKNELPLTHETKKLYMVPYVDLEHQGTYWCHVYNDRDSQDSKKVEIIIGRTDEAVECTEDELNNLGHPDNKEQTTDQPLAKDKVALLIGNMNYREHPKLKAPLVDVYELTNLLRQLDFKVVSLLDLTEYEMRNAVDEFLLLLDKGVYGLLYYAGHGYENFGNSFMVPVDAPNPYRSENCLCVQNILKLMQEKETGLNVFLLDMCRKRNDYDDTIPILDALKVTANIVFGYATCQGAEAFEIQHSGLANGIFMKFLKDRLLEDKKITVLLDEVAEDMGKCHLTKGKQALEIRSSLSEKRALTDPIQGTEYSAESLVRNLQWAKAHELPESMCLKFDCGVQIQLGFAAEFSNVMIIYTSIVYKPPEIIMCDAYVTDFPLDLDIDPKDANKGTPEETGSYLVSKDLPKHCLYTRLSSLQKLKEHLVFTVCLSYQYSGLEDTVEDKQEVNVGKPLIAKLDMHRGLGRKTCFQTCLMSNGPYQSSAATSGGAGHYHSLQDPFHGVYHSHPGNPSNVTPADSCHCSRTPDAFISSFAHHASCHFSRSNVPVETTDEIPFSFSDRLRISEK
Description: MALT1 protease assay (Ac-LRSR-AMC tetrapeptide substrate, fluorescence). In kind it is biochemical. The settings on record: 1 nM MALT1, 25 μM Ac-LRSR-AMC, 2 h pre-incubation, 8 hr incubation at RT. Here is the method:
MALT1 protease activity was assessed in an in vitro assay using a tetrapeptide as substrate and full-length MALT1 protein His-MALT1(1-824) purified from baculovirus-infected insect cells.
The final assay buffer includes 1 nM of MALT1 full-length protein, 25 μM Ac-LRSR-AMC substrate, 50 mM Tris pH 7.5, 600 mM Sodium Citrate, 1 mM DTT, 1 mM EDTA, and 0.05% BSA in 384-well plate format using black microtiter square well plates (Optiplate 384-F, Perkin Elmer).
Test compounds were dissolved in 100% DMSO stock of 10 mM, with final DMSO concentration of 0.1%. Test compounds were pre-incubated with MALT1 protein for 2 h at room temperature. Substrate was added after the pre-incubation and fluorescence signal was measured using Envision at excitation 355 nm and emission 460 nm after 8 hr incubation at RT.
The fluorescence units were transformed to percentage of remaining activity by using the high control (HC, median of fluorescence signal from wells containing MALT1 protein, substrate, and DMSO) and low control (LC, median of fluorescence signal from wells with substrate only) with the formula below: […]
IC50 and Hill coefficients were obtained using Graph Pad Prism (Graph Pad software, Inc, USA) with non-linear regression analysis.

Structures are written as SMILES. A value given as a limit tells only on which side of the number the result lay.

One may read the IC50 as the concentration needed to halve the response being measured. Read a low IC50 as greater potency in that assay. The compound `Cn1ccc([C@@]2(C)C[C@@H](C(=O)Nc3cnc(OC(F)F)c(C#N)c3)c3cnc4cc(F)nn4c32)n1` (single isomer, unassigned) [Example 71] yielded an IC50 not below 1000 nM.

Compound `C[C@]1(c2cnn(C3CC3)c2)C[C@H](C(=O)Nc2cnc(OC(F)F)c(C#N)c2)c2cnc3cc(F)nn3c21` (single isomer, unassigned) [Example 72] showed a half-inhibitory concentration (IC50) of less than 10 nM.

Compound `C[C@@]1(c2cnn(C3CC3)c2)C[C@@H](C(=O)Nc2cnc(OC(F)F)c(C#N)c2)c2cnc3cc(F)nn3c21` (single isomer, unassigned) [Example 73] returned an IC50 not below 1000 nM.

`C[C@@]1(c2cnn(C3CC3)c2)C[C@H](C(=O)Nc2cnc(OC(F)F)c(C#N)c2)c2cnc3cc(F)nn3c21` (single isomer, unassigned) [Example 74] displayed an IC50 of 10 to 100 nM.

In the case of `C[C@]1(c2cnn(C3CC3)c2)C[C@@H](C(=O)Nc2cnc(OC(F)F)c(C#N)c2)c2cnc3cc(F)nn3c21` (single isomer, unassigned) [Example 75], the concentration for half-maximal inhibition (IC50) lay within 100 to 1000 nM.

The compound `Cn1ccc([C@@]2(C)C[C@H](C(=O)Nc3cnc(-n4nccn4)c(Cl)c3)c3cnc4cc(Cl)nn4c32)n1` (single isomer, unassigned) [Example 76] registered an IC50 of less than 10 nM.

For the compound `Cn1ccc([C@]2(C)C[C@@H](C(=O)Nc3cnc(-n4nccn4)c(Cl)c3)c3cnc4cc(Cl)nn4c32)n1` (single isomer, unassigned) [Example 77], the IC50 was not below 1000 nM.

With `Cn1ccc([C@]2(C)C[C@H](C(=O)Nc3cnc(-n4nccn4)c(Cl)c3)c3cnc4cc(Cl)nn4c32)n1` (single isomer, unassigned) [Example 78], the IC50 lay in the range of 100 to 1000 nM.

Take `Cn1ccc([C@@]2(C)C[C@@H](C(=O)Nc3cnc(-n4nccn4)c(Cl)c3)c3cnc4cc(Cl)nn4c32)n1` (single isomer, unassigned) [Example 79]: the concentration for half-maximal inhibition (IC50) is 100 to 1000 nM.

The compound `C[C@]1(c2cnn(C(F)F)c2)C[C@H](C(=O)Nc2cnc(-n3nccn3)c(C(F)(F)F)c2)c2cnc3cc(F)nn3c21` (single isomer, unassigned) [Example 80] registered an IC50 of less than 10 nM.

In turn, `C[C@@]1(c2cnn(C(F)F)c2)C[C@@H](C(=O)Nc2cnc(-n3nccn3)c(C(F)(F)F)c2)c2cnc3cc(F)nn3c21` (single isomer, unassigned) [Example 81] registered an IC50 not below 1000 nM.

Take `C[C@@]1(c2cnn(C(F)F)c2)C[C@H](C(=O)Nc2cnc(-n3nccn3)c(C(F)(F)F)c2)c2cnc3cc(F)nn3c21` (single isomer, unassigned) [Example 82]: the IC50 fell in the range of 10 to 100 nM.

In turn, `C[C@]1(c2cnn(C(F)F)c2)CC(C(=O)Nc2cnc(-n3nccn3)c(C(F)(F)F)c2)c2cnc3cc(F)nn3c21` (single isomer, unassigned) [Example 83] registered an IC50 of 100 to 1000 nM.

`C[C@]1(c2cnn(CC(F)(F)F)c2)C[C@H](C(=O)Nc2cnc(-n3nccn3)c(Cl)c2)c2cnc3cc(F)nn3c21` (single isomer, unassigned) [Example 84]: the IC50 is less than 10 nM.

`C[C@@]1(c2cnn(CC(F)(F)F)c2)C[C@@H](C(=O)Nc2cnc(-n3nccn3)c(Cl)c2)c2cnc3cc(F)nn3c21` (single isomer, unassigned) [Example 85] returned an IC50 not below 1000 nM.

With `C[C@@]1(c2cnn(CC(F)(F)F)c2)C[C@H](C(=O)Nc2cnc(-n3nccn3)c(Cl)c2)c2cnc3cc(F)nn3c21` (single isomer, unassigned) [Example 86], the IC50 fell in the range of 10 to 100 nM.

The compound `C[C@]1(c2cnn(CC(F)(F)F)c2)C[C@@H](C(=O)Nc2cnc(-n3nccn3)c(Cl)c2)c2cnc3cc(F)nn3c21` (single isomer, unassigned) [Example 87] registered an IC50 of 100 to 1000 nM.

`C[C@@]1(c2ccn(C(F)F)n2)C[C@@H](C(=O)Nc2cnc(-n3nccn3)c(Cl)c2)c2cnc3cc(F)nn3c21` (single isomer, unassigned) [Example 89]: the IC50 was not below 1000 nM.

On to `C[C@@]1(c2ccn(C(F)F)n2)C[C@H](C(=O)Nc2cnc(-n3nccn3)c(Cl)c2)c2cnc3cc(F)nn3c21` (single isomer, unassigned) [Example 90], for which the IC50 lay within 10 to 100 nM.

Regarding `C[C@]1(c2ccn(C(F)F)n2)C[C@@H](C(=O)Nc2cnc(-n3nccn3)c(Cl)c2)c2cnc3cc(F)nn3c21` (single isomer, unassigned) [Example 91], the IC50 was 100 to 1000 nM.

`C[C@@]1(c2cnn(C(F)F)c2)C[C@@H](C(=O)Nc2cnc(OC(F)F)c(C#N)c2)c2cnc3cc(F)nn3c21` (single isomer, unassigned) [Example 93] gave an IC50 not below 1000 nM.

`C[C@@]1(c2cnn(C(F)F)c2)C[C@H](C(=O)Nc2cnc(OC(F)F)c(C#N)c2)c2cnc3cc(F)nn3c21` (single isomer, unassigned) [Example 94] displayed an IC50 of 10 to 100 nM.

For the compound `C[C@]1(c2cnn(C(F)F)c2)C[C@@H](C(=O)Nc2cnc(OC(F)F)c(C#N)c2)c2cnc3cc(F)nn3c21` (single isomer, unassigned) [Example 95], the IC50 fell in the range of 100 to 1000 nM.

Take `CC1(c2cnn(C(F)F)c2)CC(C(=O)Nc2cnc(N=S3(=O)CCC3)c(Cl)c2)c2cnc3cc(F)nn3c21` (single isomer, unassigned) [Example 96]: the concentration for half-maximal inhibition (IC50) lay in the range of 10 to 100 nM.

On to `CC1(c2cnn(C(F)F)c2)CC(C(=O)Nc2cnc(N=S3(=O)CCC3)c(Cl)c2)c2cnc3cc(F)nn3c21` (single isomer, unassigned) [Example 97], for which the IC50 was not below 1000 nM.

`C[C@]1(c2cnn(CC3CC3)c2)C[C@H](C(=O)Nc2cnc(-n3nccn3)c(Cl)c2)c2cnc3cc(F)nn3c21` (single isomer, unassigned) [Example 98] displayed an IC50 of less than 10 nM.

Compound `C[C@@]1(c2cnn(CC3CC3)c2)C[C@@H](C(=O)Nc2cnc(-n3nccn3)c(Cl)c2)c2cnc3cc(F)nn3c21` (single isomer, unassigned) [Example 99] registered an IC50 not below 1000 nM.

In turn, `C[C@@]1(c2cnn(CC3CC3)c2)C[C@H](C(=O)Nc2cnc(-n3nccn3)c(Cl)c2)c2cnc3cc(F)nn3c21` (single isomer, unassigned) [Example 100] returned an IC50 of 10 to 100 nM.

`C[C@]1(c2cnn(CC3CC3)c2)C[C@@H](C(=O)Nc2cnc(-n3nccn3)c(Cl)c2)c2cnc3cc(F)nn3c21` (single isomer, unassigned) [Example 101] yielded an IC50 of 100 to 1000 nM.

With `C[C@]1(c2cnn(C(F)(F)F)c2)C[C@H](C(=O)Nc2cnc(-n3nccn3)c(Cl)c2)c2cnc3cc(F)nn3c21` (single isomer, unassigned) [Example 102], the IC50 was 10 to 100 nM.

`C[C@@]1(c2cnn(C(F)(F)F)c2)C[C@@H](C(=O)Nc2cnc(-n3nccn3)c(Cl)c2)c2cnc3cc(F)nn3c21` (single isomer, unassigned) [Example 103] gave an IC50 not below 1000 nM.

With `C[C@@]1(c2cnn(C(F)(F)F)c2)C[C@H](C(=O)Nc2cnc(-n3nccn3)c(Cl)c2)c2cnc3cc(F)nn3c21` (single isomer, unassigned) [Example 104], the IC50 fell in the range of 100 to 1000 nM.

Consider `C[C@]1(c2cnn(C(F)(F)F)c2)C[C@@H](C(=O)Nc2cnc(-n3nccn3)c(Cl)c2)c2cnc3cc(F)nn3c21` (single isomer, unassigned) [Example 105], for which the half-maximal inhibitory concentration (IC50) fell in the range of 100 to 1000 nM.

With `CC1(c2cnn(C3(C)CC3)c2)CC(C(=O)Nc2cnc(-n3nccn3)c(Cl)c2)c2cnc3cc(F)nn3c21` (single isomer, unassigned) [Example 107], the IC50 was not below 1000 nM.

The compound `CC1(n2cc([C@]3(C)C[C@H](C(=O)Nc4cnc(-n5nccn5)c(Cl)c4)c4cnc5cc(F)nn5c43)cn2)CC1` (single isomer, unassigned) [Example 108] gave an IC50 of 100 to 1000 nM.

Take `CC1(n2cc([C@@]3(C)C[C@@H](C(=O)Nc4cnc(-n5nccn5)c(Cl)c4)c4cnc5cc(F)nn5c43)cn2)CC1` (single isomer, unassigned) [Example 109]: the IC50 fell in the range of 100 to 1000 nM.

In the case of `C[C@@]1(c2ccn(C(F)F)n2)C[C@@H](C(=O)Nc2cnc(OC(F)F)c(C#N)c2)c2cnc3cc(F)nn3c21` (single isomer, unassigned) [Example 111], the IC50 was not below 1000 nM.

For the origin of these results see patent publication US20260049085A1, “CYCLIC COMPOUNDS AND METHODS OF USING SAME” (SCHRÖDINGER, INC., priority 2022, published 2026).
